Test results published in PMC6426458 (Science Advances, 2019).

What was measured:
[1] = molecular target: T1, RelMtb (truncated, residues 53 to 446) (Mycobacterium tuberculosis, UniProt P9WHG9); assay: RelMtb enzymatic fluorescence polarization; type: biochemical
T1 sequence (P9WHG9 1-394): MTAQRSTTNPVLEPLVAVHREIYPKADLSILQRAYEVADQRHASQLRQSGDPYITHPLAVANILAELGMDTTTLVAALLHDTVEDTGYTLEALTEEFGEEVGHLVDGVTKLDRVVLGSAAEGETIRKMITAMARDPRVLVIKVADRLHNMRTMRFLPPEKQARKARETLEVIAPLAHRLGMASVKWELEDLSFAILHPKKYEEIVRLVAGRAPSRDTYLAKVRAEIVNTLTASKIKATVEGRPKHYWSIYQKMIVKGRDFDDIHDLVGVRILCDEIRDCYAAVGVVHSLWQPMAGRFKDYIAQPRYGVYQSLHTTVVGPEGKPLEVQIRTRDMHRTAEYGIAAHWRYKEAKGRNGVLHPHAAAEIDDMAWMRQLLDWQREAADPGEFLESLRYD

[2] = tested on: relMtb-deficient Mtb; settings: nutrient-rich broth; cited from earlier work
[3] = tested on: WT Mtb H37Rv; type: cell-based, Mycobacterium tuberculosis
[4] = tested on: Δrel (H37Rv deficient in Rv2583c/relMtb); type: cell-based, Mycobacterium tuberculosis; settings: nutrient-rich broth
[5] = tested on: rel Comp (relMtb-complemented strain); type: cell-based, Mycobacterium tuberculosis
[6] = tested on: WT H37Rv; design: species or system Mycobacterium tuberculosis; settings: in vivo
[7] = tested on: Δrel; design: species or system Mycobacterium tuberculosis; settings: in vivo
[8] = tested on: rel Comp; design: species or system Mycobacterium tuberculosis; settings: in vivo
[9] = tested on: nutrient-starved empty vector control (CDC1551); type: cell-based, Mycobacterium tuberculosis; settings: INH 15.36 μg/ml, 7 days of exposure
[10] = tested on: Mtb following exposure to NS; settings: cited from earlier work

Nc1ncnc2c1ncn2[C@@H]1O[C@H](COP(=O)(O)CP(=O)(O)OP(=O)(O)O)[C@@H](O)[C@H]1O [AMPCPP, α,β-methylene analogue of ATP]
IC50 [1]: 6.2 mM

Nc1nc2c(ncn2[C@@H]2O[C@H](COP(=O)(O)OP(=O)(O)OP(=O)(O)O)C[C@H]2O)c(=O)[nH]1 [3′-dGTP]
IC50 [1]: 4 mM

Nc1nc2c(ncn2[C@@H]2O[C@H](COP(=O)(O)OP(=O)(O)OP(=O)(O)OP(=O)(O)OC[C@H]3O[C@@H](n4cnc5c(N)ncnc54)[C@H](O)[C@@H]3O)[C@@H](O)[C@H]2O)c(=O)[nH]1 [AP4G]
IC50 [1]: 1.8 mM

CO[C@H]1/C=C/O[C@@]2(C)Oc3c(C)c(O)c4c(O)c(c(/C=N/N5CCN(C)CC5)c(O)c4c3C2=O)NC(=O)/C(C)=C\C=C\[C@H](C)[C@H](O)[C@@H](C)[C@@H](O)[C@@H](C)[C@H](OC(C)=O)[C@@H]1C [rifampin]
MIC against relMtb-deficient Mtb compared with the WT strain [2]: the same as that against the WT strain

NNC(=O)c1ccncc1 [INH, isoniazid]
MBC of INH (concentration required to kill 99%) [3]: 0.06 µg/mL
fold decrease of MBC of INH [3]: 16 fold
fold increase of MBC of INH [3]: 512 fold
MBC of INH (concentration required to kill 99%) [4]: 0.06 µg/mL
fold increase of MBC of INH ([5]; 7 days of NS versus nutrient-rich broth): 512 fold
fold decrease of MBC of INH ([5]; 7 days of NS, in the presence of 4 μM X9): 16 fold
MBC of INH (concentration required to kill 99%) ([5]; nutrient-rich broth): 0.06 µg/mL
reduction of lung bacillary burden relative to the start of treatment [6]: 0.11 log10
bacilli killed in the lungs during 2 weeks of treatment [7]: 2.03 log10
reduction of lung bacterial load [8]: 0.48 log10
mean reduction of bacterial density (CFU/ml) [9]: 1.43 log10 CFU
fold increase in the MBC of INH [10]: > 100 fold
MIC against relMtb-deficient Mtb compared with the WT strain [2]: the same as that against the WT strain
